Reference: patent US8937063B2 (Trustees of Tufts College, priority 2010, dated 2015)

Assays:
[1] = system: plasma lipids in animal models; experiment: Summary of lipid efficacy studies in animal models; assay type: in vivo
Source text: A number of pharmacokinetic, safety, and efficacy studies for ARI-001 have been completed in a variety of animals, including mice, rats, Golden Syrian hamsters, dogs, and monkeys. Overall, results from these studies have established the following.

[2] = Multiple administration (30 days) pharmacokinetic study in wild type mice; assay type: in vivo, C57BL/6 mice; settings: 996, 1493, 2240, 3360 mg/kg oral daily 30 days
Method: Wild type C57BL/6 mice were dosed with ARI-001 in solution via oral gavage daily for 30 consecutive days. Over the course of five 24-hour periods, blood was collected, and the resultant plasma was analyzed for concentrations of ARI-001. Four doses were used: 996 mg/kg, 1493 mg/kg, 2240 mg/kg, and 3360 mg/kg. […] However, these values were time-independent, as there was no trend observed between these parameters and days of administration. See FIGS. 15A-15D and FIGS. 16A-16B.

[3] = Pharmacokinetics of multiple administrations to fasted monkeys; assay type: in vivo, Macaque monkeys; settings: 288 mg/kg oral gavage once per day, seven days
Method: ARI-001 was administered to monkeys via oral gavage once per day for a total of seven days. Blood samples were collected after the first and after the last administrations to measure plasma concentrations of ARI-001.

[4] = Human clinical trial, single oral doses: serum concentration; assay type: in vivo; settings: serum, ARI-001 2000 mg single oral dose, preliminary, read-out: Cmax, serum
Method: Five periods of single dose escalation, with 8 subjects per cohort (6 drug: 2 placebo) involve a total 40 subjects. Appropriately blinded matching placebos are provided. Cohort 1 receives 500 mg of ARI-001 formulated as a single oral tablet, plus eleven placebo tablets; Cohort 2, […] of ARI-001, plus ten placebo tablets; Cohort 3, […] of ARI-001, plus eight placebo tablets; Cohort 4, […] of ARI-001, plus four placebo tablets; Corhort 5, […] of ARI-001. Placebo-only subjects take twelve placebo tablets. Each tablet is a compressed, film-coated tablet suitable for oral administration.
Pharmacokinetic samples are collected at 0-45 min pre-dose and at 0.5, 1, 1.5, 2, 4, 6, 8, 12, 24, 30 and 168 hours after dosing. […]
[…] […] Analysis of all samples is performed at a central laboratory.

GPR109A = molecular target: T1, GPR109A (Homo sapiens, UniProt Q8TDS4); experiment: PathHunter eXpress β-arrestin recruitment assay; assay type: cell-based; settings: concentrations up to 10 mM, 90 minutes
T1 construct: β-galactosidase enzyme fragment (ProLink-type complementation tag); expressed in transfected cells
T1 sequence (Q8TDS4 whole entry, the tested form may be a part): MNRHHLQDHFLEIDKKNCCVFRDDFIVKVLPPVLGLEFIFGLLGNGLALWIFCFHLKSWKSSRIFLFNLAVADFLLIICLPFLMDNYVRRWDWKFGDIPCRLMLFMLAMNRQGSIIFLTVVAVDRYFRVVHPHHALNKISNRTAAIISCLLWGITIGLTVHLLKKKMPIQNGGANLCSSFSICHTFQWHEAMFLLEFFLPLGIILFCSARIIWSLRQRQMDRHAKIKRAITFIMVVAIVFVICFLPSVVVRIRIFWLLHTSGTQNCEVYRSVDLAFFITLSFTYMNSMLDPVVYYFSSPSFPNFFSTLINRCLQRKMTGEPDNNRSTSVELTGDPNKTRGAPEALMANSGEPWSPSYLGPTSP
Source text: Walters R W et al. (2009) J Clin Invest 119:1312-21. […] G protein-coupled receptor (GPCR) activity was detected by measuring the interaction of β-arrestin with the activated GPCR using […] enzyme fragment complementation.

ApoAI mRNA = experiment: qPCR of liver mRNA in HF/HS hamsters; assay type: in vivo, hamster; settings: ARI-001 2240 mg/kg oral 18 days; relative to mean of vehicle
Source text: (§1) Hamster livers and adipose were preared in manners similar to that described for ARI-001 concentration determination. Briefly, to prepare for analysis, a sample of liver was excised from the frozen mass, weighed, and homogenized with a tissue grinder followed by sonication in buffer. The solid materials were then removed by centrifugation. The resulting lysate was used in qPCR analysis to quantify the specific mRNA measured (vide infra) using primers designed for the specific sequences of interest. All mRNA quantities were normalized to vehicle-treated animal, and mRNA levels were expressed as a fold increase or decrease relative to vehicle-treated. […] During grinding, liquid nitrogen was added to ensure the sample of adipose remained solid. The ground sample was transferred to a tared tube to weigh total sample. This ground sample was treated with buffer and prepared for qPCR to quantify specific mRNA quantities.

SR-BI mRNA = experiment: qPCR of liver mRNA in HF/HS hamsters; assay type: in vivo, hamster; settings: ARI-001 2240 mg/kg oral 18 days; relative to mean of vehicle
Source text: as §1

ABCA1 mRNA = experiment: qPCR of liver mRNA in HF/HS hamsters; assay type: in vivo, hamster; settings: ARI-001 2240 mg/kg oral 18 days; relative to mean of vehicle
Source text: as §1

CETP mRNA = experiment: qPCR of liver and adipose mRNA in HF/HS hamsters; assay type: in vivo, hamster; settings: ARI-001 2240 mg/kg oral 18 days; relative to mean of vehicle
Source text: as §1

healthy adult volunteers = experiment: Human clinical trial, single escalating oral doses: triglycerides; assay type: in vivo; settings: preliminary, FIG. 22
Method: A randomized, double-blind, placebo-controlled study is performed with sequential escalating doses by cohort with observations for 30 hours post dosing and return visit on 8th day. Study subjects are healthy male and female adult volunteers, age 18-60 years, with LDL-C>130 mg/dL and weight <85 kg. Subjects are randomly assigned to receive study drug or placebo.
Five periods of single dose escalation, with 8 subjects per cohort (6 drug: 2 placebo) involve a total 40 subjects. Appropriately blinded matching placebos are provided. Cohort 1 receives 500 mg of ARI-001 formulated as a single oral tablet, plus eleven placebo tablets; Cohort 2, 1000 mg taken as two 500 mg tablets of ARI-001, plus ten placebo tablets; Cohort 3, 2000 mg taken as four 500 mg tablets of ARI-001, plus eight placebo tablets; Cohort 4, 4000 mg taken as eight 500 mg tablets of ARI-001, plus four placebo tablets; Corhort 5, 6000 mg taken as twelve 500 mg tablets of ARI-001. Placebo-only subjects take twelve placebo tablets. Each tablet is a compressed, film-coated tablet suitable for oral administration. […]

high fat-fed hamsters = experiment: Plasma glucose in chronically dosed hamsters; assay type: in vivo, hamster; settings: ARI-001 1120 and 2240 mg/kg oral 18 days, vs vehicle
Method: These animals were dosed for 18 consecutive days, while being on a HF/HS diet for a total of nearly 5 weeks. We also examined the glucose levels in the plasma of these animals. For pharmacokinetic studies, we utilized wild type mice for both single and repeated administration study. Finally, pharmacokinetic studies were corroborated by data from single and repeated administration to monkeys.

Cmax levels and AUC as a function of days of administration [2]: time-independent | Cmax levels and total 24-hour exposure (AUC) as a function of dose [2]: dose-dependent | Cmax day 1 versus day 7 [3]: higher on day 7 than on day 1 | concentrations 24 hours after first or last dose [3]: essentially identical | plasma concentrations day 1 versus day 7 [3]: very little difference | Cmax [4]: ~7500 ng/mL | recruitment of β-arrestin to the membrane of cells expressing GPR109A (GPR109A): failed to recruit β-arrestin
Structure (SMILES): O=C(O)c1ccc(CCN2CCOCC2)nc1 [ARI-001]
plasma lipid changes, once daily vs same total dose twice daily ([1]; in vivo): greater than or equal to the lipid altering effects observed with the same total dose of ARI-001 given twice daily | lipid altering effects of once-daily dose vs niacin ([1]; niacin at nearly 2-fold higher dose once a day): more pronounced | Liver ApoAI mRNA per mg tissue (ApoAI mRNA): 1.72 ± 0.24 fold-change | Liver SR-BI mRNA per mg tissue (SR-BI mRNA): 1.50 ± 0.33 fold-change | Liver ABCA1 mRNA per mg tissue (ABCA1 mRNA): 1.54 ± 0.48 fold-change | Adipose CETP mRNA per mg tissue (CETP mRNA): 1.72 ± 0.70 fold-change | Liver CETP mRNA per mg tissue (CETP mRNA): 2.05 ± 0.38 fold-change | change in triglycerides 4 hours after dosing (healthy adult volunteers): dose response for triglyceride lowering | plasma glucose (high fat-fed hamsters): neither dose of ARI-001 produced any significant change in glucose levels
